Source: ChEMBL document CHEMBL3046270, “Bleaching herbicide norflurazon inhibits phytoene desaturase by competition with the cofactors” (J Agric Food Chem, 2001)
Active and inactive are the calls of the source.

Tests used:
[1] = target: 15-cis-phytoene desaturase (Synechococcus elongatus (strain PCC 7942) (Anacystis nidulans R2)) (UniProt P26294); test: Competitive inhibition of Synechococcus phytoene desaturase using decyl plastoquinone as cofactor and phytoene as substrate at 0.1 uM after 2 hr by double reciprocal plot analysis
[2] = target: Phytoene desaturase (Gentiana lutea) (UniProt Q8W433); test: Competitive inhibition of Gentiana lutea desaturase using decyl plastoquinone as cofactor and phytoene as substrate at 0.1 uM after 2 hr by double reciprocal plot analysis
[3] = target: 15-cis-phytoene desaturase (Synechococcus elongatus (strain PCC 7942) (Anacystis nidulans R2)) (UniProt P26294); test: Competitive inhibition of Synechococcus phytoene desaturase using NADP as cofactor and phytoene as substrate at 0.1 uM after 2 hr by double reciprocal plot analysis

Measured: inhibition

15-cis-phytoene desaturase (Synechococcus elongatus (strain PCC 7942) (Anacystis nidulans R2)), sequence (P26294 whole entry): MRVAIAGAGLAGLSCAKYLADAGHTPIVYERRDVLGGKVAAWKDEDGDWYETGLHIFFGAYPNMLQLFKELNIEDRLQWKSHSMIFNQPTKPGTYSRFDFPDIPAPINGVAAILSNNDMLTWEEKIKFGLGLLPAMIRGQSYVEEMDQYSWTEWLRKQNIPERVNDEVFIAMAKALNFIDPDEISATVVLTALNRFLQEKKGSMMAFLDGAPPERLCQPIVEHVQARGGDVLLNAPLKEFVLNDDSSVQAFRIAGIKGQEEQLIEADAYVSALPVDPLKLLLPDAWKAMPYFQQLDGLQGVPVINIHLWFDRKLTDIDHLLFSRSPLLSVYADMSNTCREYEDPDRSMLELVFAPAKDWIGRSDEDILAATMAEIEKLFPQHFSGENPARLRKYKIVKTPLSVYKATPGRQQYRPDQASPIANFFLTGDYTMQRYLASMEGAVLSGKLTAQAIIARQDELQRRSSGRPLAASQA
Phytoene desaturase (Gentiana lutea), sequence (Q8W433 as listed by the source): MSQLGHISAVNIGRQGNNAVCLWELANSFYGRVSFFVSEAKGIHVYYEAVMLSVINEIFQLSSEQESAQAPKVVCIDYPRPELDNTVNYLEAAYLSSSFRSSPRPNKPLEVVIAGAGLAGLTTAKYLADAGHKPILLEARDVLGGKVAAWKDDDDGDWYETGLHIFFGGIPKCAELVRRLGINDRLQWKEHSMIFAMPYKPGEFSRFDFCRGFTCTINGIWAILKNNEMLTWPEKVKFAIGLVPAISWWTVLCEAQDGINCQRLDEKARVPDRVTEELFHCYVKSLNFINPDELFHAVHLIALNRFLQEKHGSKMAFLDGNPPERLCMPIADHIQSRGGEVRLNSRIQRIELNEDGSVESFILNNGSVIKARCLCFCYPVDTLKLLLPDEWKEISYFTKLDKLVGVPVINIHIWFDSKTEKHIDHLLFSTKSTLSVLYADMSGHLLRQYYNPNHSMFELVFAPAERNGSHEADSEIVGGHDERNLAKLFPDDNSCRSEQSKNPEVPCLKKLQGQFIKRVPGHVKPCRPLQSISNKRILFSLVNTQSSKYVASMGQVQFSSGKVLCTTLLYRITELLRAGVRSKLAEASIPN

CNc1cnn(-c2cccc(C(F)(F)F)c2)c(=O)c1Cl
active: all assays above
